What was measured:
Assay in all cases: relative viability (nuclei count vs DMSO), 5 days (fraction); higher = more cells survive
CAL-12T = tested on: CAL-12T
How it was run: (§1)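 Lung cancer cell lines were seeded in 1536-well plates and dosed by pin tool the next day, with either a single drug or a fixed anchor-drug dose combined with five library-drug doses (not always all listed) spaced in √10 steps. Five days later, one step fixed the cells and stained their nuclei (final 0.05% Triton X-100, 1% formaldehyde, 1 ug/ml Hoechst), and nuclei were counted on 4× images. Relative viability is the nuclei count in treated wells divided by the count in vehicle wells, and each value is the median of duplicate plates.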

NCI-H596 = tested on: NCI-H596
How it was run: as §1

201T = tested on: 201T
How it was run: as §1

PC-3 [JPC-3] = tested on: PC-3 [JPC-3]
How it was run: as §1

NCI-H1650 = tested on: NCI-H1650
How it was run: as §1

NCI-H727 = tested on: NCI-H727
How it was run: as §1

NCI-H520 = tested on: NCI-H520
How it was run: as §1

NCI-H460 = tested on: NCI-H460
How it was run: as §1

NCI-H1944 = tested on: NCI-H1944
How it was run: as §1

NCI-H650 = tested on: NCI-H650
How it was run: as §1

NCI-H2087 = tested on: NCI-H2087
How it was run: as §1

A-427 = tested on: A-427
How it was run: as §1

BEN = tested on: BEN
How it was run: as §1

H3255 = tested on: H3255
How it was run: as §1

NCI-H1651 = tested on: NCI-H1651
How it was run: as §1

ABC-1 = tested on: ABC-1
How it was run: as §1

LCLC-97TM1 = tested on: LCLC-97TM1
How it was run: as §1

NCI-H1915 = tested on: NCI-H1915
How it was run: as §1

NCI-H2023 = tested on: NCI-H2023
How it was run: as §1

NCI-H661 = tested on: NCI-H661
How it was run: as §1

LC-2-ad = tested on: LC-2-ad
How it was run: as §1

NCI-H441 = tested on: NCI-H441
How it was run: as §1

## CCN(CC)CCCCNc1ncc2cc(-c3cc(OC)cc(OC)c3)c(NC(=O)NC(C)(C)C)nc2n1 + O=C(c1cc(Cc2n[nH]c(=O)c3ccccc23)ccc1F)N1CCN(C(=O)C2CC2)CC1 [Olaparib] (partner 8 µM)
CAL-12T; first compound 0.01 µM
  relative viability: 0.678
CAL-12T; first compound 0.03162 µM
  relative viability: 0.78
CAL-12T; first compound 0.1 µM
  relative viability: 0.829
CAL-12T; first compound 0.3162 µM
  relative viability: 0.845
CAL-12T; first compound 1 µM
  relative viability: 0.763
NCI-H596; first compound 0.01 µM
  relative viability: 0.649
NCI-H596; first compound 0.03162 µM
  relative viability: 0.727
NCI-H596; first compound 0.1 µM
  relative viability: 0.635
NCI-H596; first compound 0.3162 µM
  relative viability: 0.723
NCI-H596; first compound 1 µM
  relative viability: 0.563
201T; first compound 0.01 µM
  relative viability: 0.913
201T; first compound 0.03162 µM
  relative viability: 0.807
201T; first compound 0.1 µM
  relative viability: 0.924
201T; first compound 0.3162 µM
  relative viability: 0.853
201T; first compound 1 µM
  relative viability: 0.719
PC-3 [JPC-3]; first compound 0.03162 µM
  relative viability: 1.08
PC-3 [JPC-3]; first compound 0.1 µM
  relative viability: 1.29
PC-3 [JPC-3]; first compound 0.3162 µM
  relative viability: 1.19
PC-3 [JPC-3]; first compound 1 µM
  relative viability: 1.07
NCI-H1650; first compound 0.01 µM
  relative viability: 0.815
NCI-H1650; first compound 0.03162 µM
  relative viability: 0.819
NCI-H1650; first compound 0.1 µM
  relative viability: 0.822
NCI-H1650; first compound 0.3162 µM
  relative viability: 0.635
NCI-H1650; first compound 1 µM
  relative viability: 0.676
NCI-H727; first compound 0.01 µM
  relative viability: 0.674
NCI-H727; first compound 0.03162 µM
  relative viability: 0.504
NCI-H727; first compound 0.1 µM
  relative viability: 0.671
NCI-H727; first compound 0.3162 µM
  relative viability: 0.585
NCI-H727; first compound 1 µM
  relative viability: 0.741
NCI-H520; first compound 0.01 µM
  relative viability: 0.367
NCI-H520; first compound 0.03162 µM
  relative viability: 0.377
NCI-H520; first compound 0.1 µM
  relative viability: 0.318
NCI-H520; first compound 0.3162 µM
  relative viability: 0.272
NCI-H520; first compound 1 µM
  relative viability: 0.261
NCI-H460; first compound 0.01 µM
  relative viability: 0.462
NCI-H460; first compound 0.03162 µM
  relative viability: 0.514
NCI-H460; first compound 0.1 µM
  relative viability: 0.52
NCI-H460; first compound 0.3162 µM
  relative viability: 0.57
NCI-H460; first compound 1 µM
  relative viability: 0.43
NCI-H1944; first compound 0.01 µM
  relative viability: 0.363
NCI-H1944; first compound 0.03162 µM
  relative viability: 0.415
NCI-H1944; first compound 0.1 µM
  relative viability: 0.474
NCI-H1944; first compound 0.3162 µM
  relative viability: 0.428
NCI-H1944; first compound 1 µM
  relative viability: 0.394
NCI-H650; first compound 0.01 µM
  relative viability: 0.369
NCI-H650; first compound 0.03162 µM
  relative viability: 0.408
NCI-H650; first compound 0.1 µM
  relative viability: 0.41
NCI-H650; first compound 0.3162 µM
  relative viability: 0.355
NCI-H650; first compound 1 µM
  relative viability: 0.391
NCI-H2087; first compound 0.01 µM
  relative viability: 0.581
NCI-H2087; first compound 0.03162 µM
  relative viability: 0.599
NCI-H2087; first compound 0.1 µM
  relative viability: 0.71
NCI-H2087; first compound 0.3162 µM
  relative viability: 0.735
NCI-H2087; first compound 1 µM
  relative viability: 0.476
A-427; first compound 0.01 µM
  relative viability: 0.781
A-427; first compound 0.03162 µM
  relative viability: 0.746
A-427; first compound 0.1 µM
  relative viability: 0.838
A-427; first compound 0.3162 µM
  relative viability: 0.816
A-427; first compound 1 µM
  relative viability: 0.685
BEN; first compound 0.01 µM
  relative viability: 1.18
BEN; first compound 0.03162 µM
  relative viability: 0.97
BEN; first compound 0.1 µM
  relative viability: 1.01
BEN; first compound 0.3162 µM
  relative viability: 1.17
BEN; first compound 1 µM
  relative viability: 1.01
H3255; first compound 0.01 µM
  relative viability: 0.567
H3255; first compound 0.03162 µM
  relative viability: 0.52
H3255; first compound 0.1 µM
  relative viability: 0.581
H3255; first compound 0.3162 µM
  relative viability: 0.575
H3255; first compound 1 µM
  relative viability: 0.558
NCI-H1651; first compound 0.01 µM
  relative viability: 0.193
NCI-H1651; first compound 0.03162 µM
  relative viability: 0.192
NCI-H1651; first compound 0.1 µM
  relative viability: 0.175
NCI-H1651; first compound 0.3162 µM
  relative viability: 0.203
NCI-H1651; first compound 1 µM
  relative viability: 0.183
ABC-1; first compound 0.03162 µM
  relative viability: 0.754
ABC-1; first compound 0.1 µM
  relative viability: 1.04
ABC-1; first compound 0.3162 µM
  relative viability: 0.93
ABC-1; first compound 1 µM
  relative viability: 1.01
LCLC-97TM1; first compound 0.01 µM
  relative viability: 0.413
LCLC-97TM1; first compound 0.03162 µM
  relative viability: 0.399
LCLC-97TM1; first compound 0.1 µM
  relative viability: 0.479
LCLC-97TM1; first compound 0.3162 µM
  relative viability: 0.512
LCLC-97TM1; first compound 1 µM
  relative viability: 0.222
NCI-H1915; first compound 0.01 µM
  relative viability: 0.234
NCI-H1915; first compound 0.03162 µM
  relative viability: 0.291
NCI-H1915; first compound 0.1 µM
  relative viability: 0.239
NCI-H1915; first compound 0.3162 µM
  relative viability: 0.245
NCI-H1915; first compound 1 µM
  relative viability: 0.222
NCI-H2023; first compound 0.01 µM
  relative viability: 0.521
NCI-H2023; first compound 0.03162 µM
  relative viability: 0.512
NCI-H2023; first compound 0.1 µM
  relative viability: 0.668
NCI-H2023; first compound 0.3162 µM
  relative viability: 0.55
NCI-H2023; first compound 1 µM
  relative viability: 0.449
NCI-H661; first compound 0.01 µM
  relative viability: 0.702
NCI-H661; first compound 0.03162 µM
  relative viability: 0.713
NCI-H661; first compound 0.1 µM
  relative viability: 0.788
NCI-H661; first compound 0.3162 µM
  relative viability: 0.822
NCI-H661; first compound 1 µM
  relative viability: 0.739
LC-2-ad; first compound 0.01 µM
  relative viability: 0.776
LC-2-ad; first compound 0.03162 µM
  relative viability: 0.744
LC-2-ad; first compound 0.1 µM
  relative viability: 0.787
LC-2-ad; first compound 0.3162 µM
  relative viability: 0.788
LC-2-ad; first compound 1 µM
  relative viability: 0.668
NCI-H441; first compound 0.01 µM
  relative viability: 0.601
NCI-H441; first compound 0.03162 µM
  relative viability: 0.556
NCI-H441; first compound 0.1 µM
  relative viability: 0.531
NCI-H441; first compound 0.3162 µM
  relative viability: 0.715
NCI-H441; first compound 1 µM
  relative viability: 0.688

— the supplement of paper PMC10307832
